Each block holds one molecule with its values, some of them ahead of it. The source made the active and inactive calls. The rule behind the calls is not given here.
What was measured:
[1] = biological target: T1, Geranylgeranyl pyrophosphate synthase (Homo sapiens, UniProt O95749)
T1 sequence (O95749 whole entry): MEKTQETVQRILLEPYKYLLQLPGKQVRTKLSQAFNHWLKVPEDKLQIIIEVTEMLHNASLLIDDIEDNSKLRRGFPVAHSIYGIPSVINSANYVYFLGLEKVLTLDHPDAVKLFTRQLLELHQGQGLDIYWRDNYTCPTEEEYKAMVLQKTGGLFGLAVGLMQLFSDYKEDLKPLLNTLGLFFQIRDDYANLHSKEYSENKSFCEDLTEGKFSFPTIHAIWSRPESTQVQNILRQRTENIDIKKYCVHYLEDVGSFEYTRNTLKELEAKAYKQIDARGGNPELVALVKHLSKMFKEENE

RPMI-8226 [2] = test: cells; conditions: Homo sapiens, RPMI-8226, 72 h
Hydroxyapatite = test: Binding affinity to bone mineral hydroxyapatite at 50 uM by 1H NMR assay
RPMI-8226 [3] = test: Induction of apoptosis in human RPMI8226 cells assessed as early apoptotic cells at 10 uM after 72 hrs by APC Annexin V/eFluor-780-viability double staining-based FACS analysis (reference value: 3.31%); format: functional
RPMI-8226 [4] = test: Induction of apoptosis in human RPMI8226 cells assessed as necrotic cells at 10 uM after 72 hrs by APC Annexin V/eFluor-780-viability double staining-based FACS analysis (reference value: 3.60%); format: functional
RPMI-8226 [5] = test: Induction of apoptosis in human RPMI8226 cells assessed as viable cells at 10 uM after 72 hrs by APC Annexin V/eFluor-780-viability double staining-based FACS analysis (reference value: 87.3%); format: functional; conditions: RPMI-8226, 72 h, read-out: Activity
RPMI-8226 [6] = test: Induction of apoptosis in human RPMI8226 cells assessed as late apoptotic cells at 10 uM after 72 hrs by APC Annexin V/eFluor-780-viability double staining-based FACS analysis (reference value: 5.80%); format: functional
[7] = biological target: T2, Farnesyl pyrophosphate synthase (Homo sapiens, UniProt P14324); test: Inhibition of human FPPS using [14C]-IPP and […] after 10 mins by scintillation counting
T2 sequence (P14324 whole entry): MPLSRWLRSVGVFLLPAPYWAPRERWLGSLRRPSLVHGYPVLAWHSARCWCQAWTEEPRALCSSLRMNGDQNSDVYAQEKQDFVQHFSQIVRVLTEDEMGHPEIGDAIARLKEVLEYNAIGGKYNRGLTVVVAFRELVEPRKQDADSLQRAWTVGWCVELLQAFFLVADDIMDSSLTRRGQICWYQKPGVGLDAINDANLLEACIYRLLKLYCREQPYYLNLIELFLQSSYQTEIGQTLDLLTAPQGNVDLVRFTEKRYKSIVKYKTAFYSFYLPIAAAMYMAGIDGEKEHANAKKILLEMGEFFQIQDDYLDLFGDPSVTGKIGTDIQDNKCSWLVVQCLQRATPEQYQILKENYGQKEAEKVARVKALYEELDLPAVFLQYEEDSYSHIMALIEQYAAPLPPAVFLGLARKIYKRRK

RPMI-8226 [8] = test: Induction of apoptosis in human RPMI8226 cells after 72 hrs by APC Annexin V/eFluor-780-viability double staining-based FACS analysis; format: functional, cell-based
RPMI-8226 [9] = test: Induction of apoptosis in human RPMI8226 cells assessed as viable cells at 1 uM after 72 hrs by APC Annexin V/eFluor-780-viability double staining-based FACS analysis (reference value: 87.3%); format: functional; conditions: RPMI-8226, 72 h, read-out: Activity
MIA PaCa-2 = test: Antiproliferative activity against human MIAPaCa2 cells at 10 uM after 72 hrs by celltiter-glo luminescent assay; format: functional, cell-based
[10] = Hepatotoxicity in Vk*MYC transgenic mouse model assessed as effect of serum AST levels at 3 mg/kg/day, ip administered over 14 days and measured at 4 hrs post last dose relative to control; format: toxicity, organism-based; conditions: in vivo
[11] = Toxicity in Vk*MYC transgenic mouse model assessed as weight loss at 3 mg/kg/day, ip administered over 14 days and measured at 4 hrs post last dose (reference value: 10 to 16%); format: organism-based; conditions: in vivo
[12] = Hepatotoxicity in Vk*MYC transgenic mouse model assessed as effect of serum ALT levels at 3 mg/kg/day, ip administered over 14 days and measured at 4 hrs post last dose relative to control; format: toxicity, organism-based; conditions: in vivo
[13] = Half life in human liver microsomes by LC-MS/MS analysis; format: ADME, Microsome
NCI/ADR-RES = test: Antiproliferative activity against human NCI-ADR-RES cells after 72 hrs by celltiter-glo luminescent assay; format: functional, cell-based
RPMI-8226 [14] = test: Induction of apoptosis in human RPMI8226 cells assessed as early apoptotic cells at 1 uM after 72 hrs by APC Annexin V/eFluor-780-viability double staining-based FACS analysis (reference value: 3.31%); format: functional
[15] = Half life in CD1 mouse liver microsomes by LC-MS/MS analysis; format: ADME, Microsome
RPMI-8226 [16] = test: Induction of apoptosis in human RPMI8226 cells assessed as viable cells at 1 uM after 72 hrs in presence GGOH by APC Annexin V/eFluor-780-viability double staining-based FACS analysis (reference value: 87.3%); format: functional; conditions: RPMI-8226, 72 h, read-out: Activity
RPMI-8226 [17] = test: Induction of apoptosis in human RPMI8226 cells assessed as necrotic cells at 1 uM after 72 hrs by APC Annexin V/eFluor-780-viability double staining-based FACS analysis (reference value: 3.60%); format: functional
RPMI-8226 [18] = test: Induction of apoptosis in human RPMI8226 cells assessed as early apoptotic cells at 1 uM after 72 hrs in presence GGOH by APC Annexin V/eFluor-780-viability double staining-based FACS analysis (reference value: 3.31%); format: functional
[19] = Half life in Sprague-Dawley rat liver microsomes by LC-MS/MS analysis; format: ADME, Microsome
RPMI-8226 [20] = test: Induction of apoptosis in human RPMI8226 cells assessed as late apoptotic cells at 1 uM after 72 hrs by APC Annexin V/eFluor-780-viability double staining-based FACS analysis (reference value: 5.80%); format: functional
RPMI-8226 [21] = test: Induction of apoptosis in human RPMI8226 cells assessed as late apoptotic cells at 1 uM after 72 hrs in presence GGOH by APC Annexin V/eFluor-780-viability double staining-based FACS analysis (reference value: 5.80%); format: functional
RPMI-8226 [22] = test: Induction of apoptosis in human RPMI8226 cells assessed as necrotic cells at 1 uM after 72 hrs in presence GGOH by APC Annexin V/eFluor-780-viability double staining-based FACS analysis (reference value: 3.60%); format: functional
A549 = test: Antiproliferative activity against human A549 cells at 10 uM after 72 hrs by celltiter-glo luminescent assay; format: functional, cell-based
HT-1080 = test: Antiproliferative activity against human HT1080 cells at 10 uM after 72 hrs by celltiter-glo luminescent assay; format: functional, cell-based
T98G = test: Antiproliferative activity against human T98G cells at 10 uM after 72 hrs by celltiter-glo luminescent assay; format: functional, cell-based
HT-29 = test: Antiproliferative activity against human HT-29 cells at 10 uM after 72 hrs by celltiter-glo luminescent assay; format: functional, cell-based
HCT-116 = test: Antiproliferative activity against human HCT116 cells at 10 uM after 72 hrs by celltiter-glo luminescent assay; format: functional, cell-based
RPMI-8226 [23] = test: Induction of apoptosis in human RPMI8226 cells assessed as viable cells at 10 nM after 72 hrs by APC Annexin V/eFluor-780-viability double staining-based FACS analysis (reference value: 87.3%); format: functional; conditions: RPMI-8226, 72 h, read-out: Activity
RPMI-8226 [24] = test: Induction of apoptosis in human RPMI8226 cells assessed as necrotic cells at 10 nM after 72 hrs by APC Annexin V/eFluor-780-viability double staining-based FACS analysis (reference value: 3.60%); format: functional
RPMI-8226 [25] = test: Induction of apoptosis in human RPMI8226 cells at 10 nM after 72 hrs in presence of GGOH by APC Annexin V/eFluor-780-viability double staining-based FACS analysis; format: functional, cell-based
RPMI-8226 [26] = test: Induction of apoptosis in human RPMI8226 cells assessed as late apoptotic cells at 10 nM after 72 hrs by APC Annexin V/eFluor-780-viability double staining-based FACS analysis (reference value: 5.80%); format: functional
RPMI-8226 [27] = test: Induction of apoptosis in human RPMI8226 cells assessed as early apoptotic cells at 10 nM after 72 hrs by APC Annexin V/eFluor-780-viability double staining-based FACS analysis (reference value: 3.31%); format: functional

Structure (SMILES): O=P(O)(O)C(Nc1ncnc2sc(-c3ccc(C(F)(F)F)cc3)cc12)P(=O)(O)O
IC50 [1]: 1500 nM
EC50 (RPMI-8226 [2]): > 100000 nM

Structure (SMILES): O=P(O)(O)C(O)(Cc1ccccn1)P(=O)(O)O
Activity (Hydroxyapatite): Active
EC50 (RPMI-8226 [2]): 11000 nM

Structure (SMILES): CC(C)=CCC/C(C)=C/CC/C(C)=C/CC/C(C)=C/CO [GERANYLGERANIOL]
Activity (RPMI-8226 [3]): 4.71%
Activity (RPMI-8226 [4]): 2.91%
viability at 10 µM (RPMI-8226 [5]): 87.4%
Activity (RPMI-8226 [6]): 4.96%

Structure (SMILES): CC(C)C[C@H](NC(=O)[C@H](Cc1ccccc1)NC(=O)c1cnccn1)B(O)O [BORTEZOMIB]
viability at 0.01 µM (RPMI-8226 [23]): 0.92%
Activity (RPMI-8226 [24]): 20.1%
Activity (RPMI-8226 [25]): Active
Activity (RPMI-8226 [26]): 78.7%
Activity (RPMI-8226 [27]): 0.26%

More lines, main results first:

IC50 [7]: 550 nM
Structure (SMILES): O=P(O)(O)C(Nc1nc(-c2ccccc2)nc2sccc12)P(=O)(O)O

EC50 (RPMI-8226 [2]): 720 nM
IC50 [7]: 2600 nM
Structure (SMILES): Cc1ccc(C(=O)Nc2cccc(-c3nc(NC(P(=O)(O)O)P(=O)(O)O)c4ccsc4n3)c2)cc1
Activity (RPMI-8226 [8]): Dose-dependent effect

Activity (Hydroxyapatite): Active
t1/2 [13]: 2.57 h
t1/2 [15]: 2.13 h
t1/2 [19]: 3.12 h
IC50 [7]: 1400 nM
Structure (SMILES): COc1ccc(NC(=O)c2cccc(-c3nc(NC(P(=O)(O)O)P(=O)(O)O)c4ccsc4n3)c2)cc1F
viability at 1 µM (RPMI-8226 [9]): 12.3%
Activity (MIA PaCa-2): Active
Activity [10]: Toxic
Activity [11]: 15 to 28%
Activity [12]: Toxic
Activity (NCI/ADR-RES): Active
Activity (RPMI-8226 [14]): 4.42%
viability at 1 µM (RPMI-8226 [16]): 85.4%
Activity (RPMI-8226 [17]): 40.2%
Activity (RPMI-8226 [18]): 3.06%
Activity (RPMI-8226 [20]): 43%
Activity (RPMI-8226 [21]): 6.18%
Activity (RPMI-8226 [22]): 5.33%

IC50 [1]: 75 nM
EC50 (RPMI-8226 [2]): 230 nM
IC50 [7]: 1300 nM
Structure (SMILES): COc1ccc(NC(=O)c2cccc(-c3nc(NC(P(=O)(O)O)P(=O)(O)O)c4ccsc4n3)c2)cc1
Activity (A549): Active
Activity (MIA PaCa-2): Active
Activity (HT-1080): Active
Activity (NCI/ADR-RES): Active
Activity (T98G): Active
Activity (HT-29): Active
Activity (HCT-116): Active

Reference: ChEMBL document CHEMBL4382196, “Unraveling the Prenylation-Cancer Paradox in Multiple Myeloma with Novel Geranylgeranyl Pyrophosphate Synthase (GGPPS) Inhibitors” (J Med Chem, 2018)
